# Laboratory results as given in the supplement of paper PMC10307832.
# Experiments:
# Test in all cases: relative viability (nuclei count vs DMSO), 5 days (fraction); higher = more cells survive
# [1] = compound: CO[C@@H]1[C@H](N(C)C(=O)c2ccccc2)C[C@H]2O[C@]1(C)n1c3ccccc3c3c4c(c5c6ccccc6n2c5c31)C(=O)NC4 [Midostaurin] + CC(=O)c1c(C)c2cnc(Nc3ccc(N4CCNCC4)cn3)nc2n(C2CCCC2)c1=O [Palbociclib] (partner 0.5 µM)
# Procedure, shortened: (§1)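 Nuclei were stained with Hoechst during a one-step fixation (final 0.05% Triton X-100, 1% formaldehyde, 1 ug/ml Hoechst) carried out 5 days after dosing, then counted on 4× images. The cells, lung cancer lines in 1536-well plates, had been dosed by pin tool the day after seeding with one drug alone or a fixed anchor-drug dose plus five library-drug doses (not always all listed) in √10 steps. Relative viability is the nuclei count in treated wells divided by that in vehicle wells, and each value is the median of duplicate plates.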
# [2] = compound: COc1cc(-c2nn([C@H]3CC[C@H](N4CCN(C(C)=O)CC4)CC3)c3ncnc(N)c23)ccc1NC(=O)c1cc2ccccc2n1C + CS(=O)(=O)CCNCc1ccc(-c2ccc3ncnc(Nc4ccc(OCc5cccc(F)c5)c(Cl)c4)c3c2)o1 [Lapatinib] (partner 2 µM)
# Procedure, shortened: as §1
# [3] = compound: COc1cc(-c2nn([C@H]3CC[C@H](N4CCN(C(C)=O)CC4)CC3)c3ncnc(N)c23)ccc1NC(=O)c1cc2ccccc2n1C + Cc1nc(NC(=O)N2CCC[C@H]2C(N)=O)sc1-c1ccnc(C(C)(C)C(F)(F)F)c1 [Alpelisib] (partner 2 µM)
# Procedure, shortened: as §1
# [4] = compound: COc1cc(-c2nn([C@H]3CC[C@H](N4CCN(C(C)=O)CC4)CC3)c3ncnc(N)c23)ccc1NC(=O)c1cc2ccccc2n1C + Nc1ncn([C@H]2C[C@H](O)[C@@H](CO)O2)c(=O)n1 [Decitabine] (partner 2 µM)
# Procedure, shortened: as §1
# [5] = compound: COc1cc(-c2nn([C@H]3CC[C@H](N4CCN(C(C)=O)CC4)CC3)c3ncnc(N)c23)ccc1NC(=O)c1cc2ccccc2n1C + O=C(CCCCCCC(=O)Nc1ccccc1)NO [Vorinostat] (partner 1 µM)
# Procedure, shortened: as §1
Cell Line,relative viability ([1]; first compound 0.01 µM),relative viability ([1]; first compound 0.03162 µM),relative viability ([1]; first compound 0.1 µM),relative viability ([1]; first compound 0.3162 µM),relative viability ([2]; first compound 0.0128 µM),relative viability ([2]; first compound 0.04048 µM),relative viability ([2]; first compound 0.128 µM),relative viability ([2]; first compound 1.28 µM),relative viability ([3]; first compound 0.0128 µM),relative viability ([3]; first compound 0.04048 µM),relative viability ([3]; first compound 0.128 µM),relative viability ([3]; first compound 1.28 µM),relative viability ([4]; first compound 0.0128 µM),relative viability ([4]; first compound 0.04048 µM),relative viability ([4]; first compound 0.128 µM),relative viability ([4]; first compound 1.28 µM),relative viability ([5]; first compound 0.0128 µM),relative viability ([5]; first compound 0.04048 µM),relative viability ([5]; first compound 0.128 µM),relative viability ([5]; first compound 1.28 µM)
NCI-H1993,0.495,0.802,0.794,0.656,0.853,0.811,0.807,0.812,0.76,0.771,0.599,0.569,0.632,0.575,0.681,0.617,0.916,0.682,0.957,0.726
NCI-H520,0.24,0.228,0.246,0.276,0.818,0.745,0.685,0.646,0.881,0.908,0.697,0.471,0.508,0.502,0.436,0.368,0.738,0.652,0.6,0.543
NCI-H647,0.462,0.396,0.485,0.465,1.24,0.974,0.981,0.632,1.03,1.18,0.945,0.429,0.451,0.424,0.406,0.364,0.422,0.698,0.606,0.421
SK-LU-1,0.404,0.409,0.379,0.399,0.913,0.902,0.721,0.681,1.15,0.917,0.821,0.441,0.577,0.557,0.559,0.481,0.797,0.763,0.765,0.724
NCI-H2009,0.175,0.192,0.287,0.404,1.26,0.438,0.961,0.888,1.15,1.2,1.16,1.08,0.352,0.386,0.33,0.357,0.711,0.702,0.78,0.751
LOU-NH91,0.514,0.527,0.499,0.552,0.756,0.689,0.747,0.679,0.77,0.74,0.759,0.564,0.792,0.898,0.842,0.804,0.987,0.921,0.909,0.858
NCI-H2405,0.534,0.575,0.521,0.51,1.13,0.554,0.955,0.446,0.83,0.419,0.722,0.272,0.861,0.55,0.657,0.362,1.01,0.886,0.834,0.374
LCLC-97TM1,0.276,0.233,0.251,0.244,0.922,0.553,0.9,1.08,0.252,0.203,0.226,0.319,0.295,0.224,0.257,0.235,0.875,0.395,0.735,0.968
NCI-H727,0.628,0.666,0.66,0.634,0.804,,0.754,0.718,0.62,,0.454,0.405,0.925,,1.01,0.84,1.35,,1.22,1.25
H3255,0.317,0.327,0.333,0.342,0.294,0.27,0.238,0.176,0.886,0.615,0.607,0.433,0.617,0.504,0.609,0.472,1.01,0.725,0.824,0.708
SK-MES-1,0.326,0.359,0.27,0.246,0.397,0.561,0.443,0.451,0.972,0.872,0.789,0.668,0.384,0.368,0.454,0.355,1.17,1.14,1.08,1.13
NCI-H1437,0.353,0.326,0.34,0.367,0.901,0.91,0.77,0.764,0.968,0.992,0.897,0.757,0.576,0.6,0.558,0.599,0.967,1,0.856,0.864
LU99A,0.386,0.513,0.371,0.386,1.11,1.1,1.12,0.904,0.464,0.565,0.534,0.521,0.808,0.601,0.949,0.994,0.609,0.523,0.426,0.628
HCC-827,0.423,0.521,0.503,0.506,0.192,0.172,0.182,0.204,1.11,0.961,0.942,0.726,0.336,0.318,0.357,0.29,0.72,0.979,0.765,0.389
LK-2,0.595,0.692,0.701,0.861,1.09,0.981,0.83,0.777,0.91,1.26,1.07,0.789,0.339,0.253,0.288,0.248,0.365,0.162,0.288,0.183
